Measured values published in patent EP4741383A1, “COMPOUND AND USE THEREOF AS ANTI-CANCER DRUG” (Tyligand Bioscience (Shanghai) Limited, priority 2023, dated 2025).

Assays:
Format in all cases: biochemical
[1] = biological target: T1, PTP1B (Homo sapiens, UniProt P18031); test: Tyrosine phosphatase selectivity (pNPP substrate), PTP1B; conditions: for IC50: PTP1B, pNPP substrate; for IC50PTP/IC50SHP2 PTP1B: selectivity ratio PTP1B over SHP2
T1 construct: made in house; host or cells: E. coli
T1 sequence (P18031 1-435): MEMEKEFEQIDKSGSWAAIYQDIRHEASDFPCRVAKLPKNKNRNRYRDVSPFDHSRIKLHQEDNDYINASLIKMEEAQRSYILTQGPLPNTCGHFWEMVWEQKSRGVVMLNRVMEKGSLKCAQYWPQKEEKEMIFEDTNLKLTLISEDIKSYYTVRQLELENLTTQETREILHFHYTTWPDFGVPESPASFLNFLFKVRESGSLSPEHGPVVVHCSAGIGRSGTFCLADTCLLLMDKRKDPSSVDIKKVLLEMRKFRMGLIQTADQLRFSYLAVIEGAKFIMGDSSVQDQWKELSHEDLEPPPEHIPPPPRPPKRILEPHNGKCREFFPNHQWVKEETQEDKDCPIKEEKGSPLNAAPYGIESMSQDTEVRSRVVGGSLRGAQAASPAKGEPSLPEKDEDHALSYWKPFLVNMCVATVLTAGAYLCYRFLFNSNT
Experimental: (§1) This experiment evaluated the selectivity of the disclosed compounds against tyrosine phosphatases, including SHP1, HePTP, Laforin, LMWPTP, LYP, PTP1B, PRL2, SSU72, VHR, FAP1, STEP, CDC14A, CD45, MEG2, and PP5, all expressed and purified from E. coli.
(§2) Phosphatase activity was measured using p-nitrophenyl phosphate (pNPP) (Fisher Scientific) as the substrate in 50 mM 3,3-dimethylglutaric acid buffer (pH 7.0, containing 1 mM EDTA), with ionic strength adjusted to 0.15 M with NaCl. […] After 10-60 minutes, the reaction was quenched by adding 20 µL of 5 N NaOH. Wells without enzyme were used as controls for correction. The amount of the product, p-nitrophenol, was determined by measuring the absorbance at 405 nm using a Spectra MAX340 microplate spectrophotometer (Molecular Devices), with a molar extinction coefficient of 18000 M^-1cm^-1.
(§3) Data were analyzed using GraphPad Prism software. Dose-response curves were obtained by fitting data using the nonlinear S-curve regression Dose-response-inhibition equation, and IC50 values were calculated.

[2] = biological target: T2, SSU72 (Homo sapiens, UniProt Q9NP77); test: Tyrosine phosphatase selectivity (pNPP substrate), SSU72; conditions: for IC50: SSU72, pNPP substrate; for IC50PTP/IC50SHP2 SSU72: selectivity ratio SSU72 over SHP2
T2 construct: made in house; host or cells: E. coli
T2 sequence (Q9NP77 1-194): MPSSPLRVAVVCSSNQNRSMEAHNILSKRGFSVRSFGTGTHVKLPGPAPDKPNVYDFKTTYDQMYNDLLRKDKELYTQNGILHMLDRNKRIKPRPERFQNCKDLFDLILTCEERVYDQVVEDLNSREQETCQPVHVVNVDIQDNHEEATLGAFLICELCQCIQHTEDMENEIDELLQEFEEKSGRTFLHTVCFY
Experimental: as §1, §2, §3

[3] = biological target: T3, VHR (Homo sapiens, UniProt P51452); test: Tyrosine phosphatase selectivity (pNPP substrate), VHR; conditions: for IC50: VHR, pNPP substrate; for IC50PTP/IC50SHP2 VHR: selectivity ratio VHR over SHP2
T3 construct: made in house; host or cells: E. coli
Experimental: as §1, §2, §3

[4] = biological target: T4, CD45 (Homo sapiens, UniProt P08575); test: Tyrosine phosphatase selectivity (pNPP substrate), CD45; conditions: for IC50: CD45, pNPP substrate; for IC50PTP/IC50SHP2 CD45: selectivity ratio CD45 over SHP2
T4 construct: made in house; host or cells: E. coli
T4 sequence (P08575 26-1306): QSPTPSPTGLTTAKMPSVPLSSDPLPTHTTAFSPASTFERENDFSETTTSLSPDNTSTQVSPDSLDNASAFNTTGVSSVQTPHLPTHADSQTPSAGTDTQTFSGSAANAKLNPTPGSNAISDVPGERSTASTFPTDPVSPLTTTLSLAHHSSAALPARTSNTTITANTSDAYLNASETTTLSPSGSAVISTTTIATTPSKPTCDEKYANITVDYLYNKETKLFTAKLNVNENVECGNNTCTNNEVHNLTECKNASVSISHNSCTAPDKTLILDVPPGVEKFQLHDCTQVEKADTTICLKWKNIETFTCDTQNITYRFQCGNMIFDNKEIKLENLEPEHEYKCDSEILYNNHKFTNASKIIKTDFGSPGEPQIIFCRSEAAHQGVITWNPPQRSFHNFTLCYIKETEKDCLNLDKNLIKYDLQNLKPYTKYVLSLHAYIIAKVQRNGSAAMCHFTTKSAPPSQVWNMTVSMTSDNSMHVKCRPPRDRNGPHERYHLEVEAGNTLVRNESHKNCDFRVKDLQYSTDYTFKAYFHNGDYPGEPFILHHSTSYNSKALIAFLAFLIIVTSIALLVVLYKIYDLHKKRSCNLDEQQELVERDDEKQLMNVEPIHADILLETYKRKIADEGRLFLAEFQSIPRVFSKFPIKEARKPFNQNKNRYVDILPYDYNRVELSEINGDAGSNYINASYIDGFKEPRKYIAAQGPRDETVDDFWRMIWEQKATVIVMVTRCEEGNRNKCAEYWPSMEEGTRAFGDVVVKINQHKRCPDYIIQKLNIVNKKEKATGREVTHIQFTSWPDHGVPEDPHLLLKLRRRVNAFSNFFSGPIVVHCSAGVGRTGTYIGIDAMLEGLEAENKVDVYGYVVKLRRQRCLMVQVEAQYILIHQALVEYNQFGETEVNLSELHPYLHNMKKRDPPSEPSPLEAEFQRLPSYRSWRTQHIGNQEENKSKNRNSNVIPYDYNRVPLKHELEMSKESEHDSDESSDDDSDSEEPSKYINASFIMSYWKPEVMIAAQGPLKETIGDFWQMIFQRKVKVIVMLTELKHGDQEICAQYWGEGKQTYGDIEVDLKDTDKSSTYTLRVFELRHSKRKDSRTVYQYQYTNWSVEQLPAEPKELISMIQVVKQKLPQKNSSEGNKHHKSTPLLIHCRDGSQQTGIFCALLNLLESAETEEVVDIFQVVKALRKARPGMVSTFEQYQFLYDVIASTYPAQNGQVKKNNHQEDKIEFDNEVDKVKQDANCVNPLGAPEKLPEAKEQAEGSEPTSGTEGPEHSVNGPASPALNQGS
Experimental: as §1, §2, §3

T3 sequence (P51452 whole entry, species assumed): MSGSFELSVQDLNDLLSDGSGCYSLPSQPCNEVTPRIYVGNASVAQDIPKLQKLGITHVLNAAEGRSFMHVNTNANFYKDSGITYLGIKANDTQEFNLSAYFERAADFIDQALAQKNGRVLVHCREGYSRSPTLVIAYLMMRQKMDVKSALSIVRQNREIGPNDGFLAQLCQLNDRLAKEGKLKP

With `O=C(Nc1ccc(-c2cc3cc(F)c(-c4nnn[nH]4)cc3n2C2CCC2)cc1)C(=O)Nc1ccc(N2CCC3(CCOC3)CC2)cc1` [Example 67] the IC50 [1] was 0.39 µM, the “IC50PTP/IC50SHP2 PTP1B” value [1] was 11.4 and the IC50 [2] was 0.016 µM. For the same compound, the “IC50PTP/IC50SHP2 SSU72” value [2] was 0.47, the IC50 [3] was 4.45 µM and the “IC50PTP/IC50SHP2 VHR” value [3] was 130. For the same compound, the IC50 [4] was 2.62 µM and the “IC50PTP/IC50SHP2 CD45” value [4] was 77.0.

In the case of `O=C(Nc1ccc(-c2oc3cc(F)c(-c4nnn[nH]4)cc3c2C2CCC2)cc1)C(=O)Nc1ccc(N2CCC3(CCOC3)CC2)cc1` [Example 125], the IC50 [1] is reported as 6.28 µM, the “IC50PTP/IC50SHP2 PTP1B” value [1] is reported as 123.1 and the IC50 [2] is reported as over 100 µM. For the same compound, the “IC50PTP/IC50SHP2 SSU72” value [2] was 1960.8, the IC50 [3] was 88.2 µM and the “IC50PTP/IC50SHP2 VHR” value [3] was 1729.4. The IC50 [4] was 16.1 µM and the “IC50PTP/IC50SHP2 CD45” value [4] was 315.7.

With `O=C(Nc1ccc(-c2cc3cc(F)c(-c4nnn[nH]4)cc3n2C2CCC2)cc1)C(=O)Nc1ccc(N2CCOCC2)cc1` [Example 47] the IC50 [1] was 0.37 µM, the “IC50PTP/IC50SHP2 PTP1B” value [1] was 5.8 and the IC50 [2] was 0.09 µM. The “IC50PTP/IC50SHP2 SSU72” value [2] was 1.4, the IC50 [3] was 1.15 µM and the “IC50PTP/IC50SHP2 VHR” value [3] was 18.2. The IC50 [4] was 1.06 µM and the “IC50PTP/IC50SHP2 CD45” value [4] was 16.8.

With `Cn1cc(-c2ccc(NC(=O)C(=O)Nc3ccc(-c4cc5cc(F)c(-c6nnc(C(F)(F)F)[nH]6)cc5n4C4CCC4)cc3)cc2)cn1` [Example 124] the IC50 [1] was over 100 µM, the “IC50PTP/IC50SHP2 PTP1B” value [1] was 139.7 and the IC50 [2] was over 100 µM. For the same compound, the “IC50PTP/IC50SHP2 SSU72” value [2] was 139.7, the IC50 [3] was over 100 µM and the “IC50PTP/IC50SHP2 VHR” value [3] was 139.7. For the same compound, the IC50 [4] was over 100 µM and the “IC50PTP/IC50SHP2 CD45” value [4] was 139.7.

In the case of `O=C(Nc1ccc(-c2ccsc2)cc1)C(=O)Nc1ccc(-c2cc3cc(F)c(-c4nnn[nH]4)nc3n2C2CCC2)cc1` [Example 132], the IC50 [1] is reported as 2.7 µM, the “IC50PTP/IC50SHP2 PTP1B” value [1] is reported as 100 and the IC50 [2] is reported as under 3 µM. For the same compound, the “IC50PTP/IC50SHP2 SSU72” value [2] was 111.1, the IC50 [3] was 10.3 µM and the “IC50PTP/IC50SHP2 VHR” value [3] was 381.5. The IC50 [4] was 23.7 µM and the “IC50PTP/IC50SHP2 CD45” value [4] was 877.8.

In the case of `O=C(Nc1ccc(-c2ccsc2)cc1)C(=O)Nc1ccc(-c2cc3cnc(-c4nnn[nH]4)nc3n2C2CCC2)cc1` [Example 131], the IC50 [1] is reported as 4.7 µM, the “IC50PTP/IC50SHP2 PTP1B” value [1] is reported as 180.8 and the IC50 [2] is reported as under 3 µM. The “IC50PTP/IC50SHP2 SSU72” value [2] was 115.4, the IC50 [3] was 9.9 µM and the “IC50PTP/IC50SHP2 VHR” value [3] was 380.8. For the same compound, the IC50 [4] was 25.2 µM and the “IC50PTP/IC50SHP2 CD45” value [4] was 969.2.
